Experimental data published in patent publication US20180256611A1, “BISPHOSPHONATES FOR INCREASING THE TYPE 2 CHARACTER OF A MODIC CHANGE” (ANTECIP BIOVENTURES II LLC, priority 2017, published 2018).

System: patients with chronic low back pain (LBP) and Modic changes on MRI
Test: Double-blinded, randomized, placebo-controlled clinical trial of a single intravenous infusion of 5 mg zoledronic acid
Assay type: in vivo, human
Conditions: for Intensity of leg pain, mean (SD) original value / Intensity of LBP, mean (SD) original value / Intensity of LBP, mean (SD) change: 10-cm VAS; for Fingers-to-floor, between-group difference, adjusted (ANCOVA) / Fingers-to-floor, between-group difference, unadjusted / Intensity of LBP, between-group difference, adjusted analysis (ANCOVA, baseline value) / Intensity of LBP, between-group difference, unadjusted analysis / Intensity of leg pain, between-group difference, adjusted (ANCOVA) / Intensity of leg pain, between-group difference, unadjusted / Oswestry disability index, between-group difference, adjusted (ANCOVA) / Oswestry disability index, between-group difference, unadjusted / RAND-36 mental component, between-group difference (95% CI), adjusted (ANCOVA) / RAND-36 mental component, between-group difference (95% CI), unadjusted / RAND-36 physical component, between-group difference (95% CI), adjusted (ANCOVA) / RAND-36 physical component, between-group difference (95% CI), unadjusted / Sidebending to left, between-group difference, adjusted (ANCOVA) / Sidebending to left, between-group difference, unadjusted / Sidebending to right, between-group difference, adjusted (ANCOVA) / Sidebending to right, between-group difference, unadjusted / Total RAND-36, between-group difference (95% CI), adjusted (ANCOVA) / Total RAND-36, between-group difference (95% CI), unadjusted: ZA vs placebo
Experimental: A study was performed to evaluate the efficacy of a single intravenous infusion of 5 mg zoledronic acid in comparison with intravenous placebo infusion among patients with chronic low back pain (LBP) and Modic changes on MRI. This study was a double-blinded, randomized, placebo-controlled clinical trial in patients with low back pain (LBP).
Patients were excluded from the study if they had renal impairment with reduced creatinine clearance defined as an estimated glomerular filtration rate (eGFR) below 40 ml/min, hypocalcemia, known hypersensitivity to zoledronic acid or other bisphosphonates or ingredients of the infusion product, the presence of red flags, nerve root entrapment or willingness for early retirement. Premenopausal women of childbearing potential were also excluded. Blood samples were taken prior to the infusion to assess the serum concentration of calcium and creatinine. The clinical examination included medical history and clinical assessment of lumbar flexibility, tendon signs, and motor and sensory testing.
After confirmation of eligibility patients were randomized to receive a single intravenous infusion of 5 mg zoledronic acid (n=20) or 100 ml saline as placebo (n=20) over a 15-minute period. Information on use of the concomitant medication and hospital admissions were recorded. Blood samples were taken for the assessment of safety, inflammatory mediators and markers of bone turnover at baseline, at one month and at one year.
Clinical assessments were performed at 14 days before enrollment (screening visit), and at follow-up visits at one month and one year after the infusion. The primary outcome was the change in the intensity of LBP on VAS. Secondary outcomes included leg pain intensity, ODI, health-related quality of life assessed with RAND-36, patient-reported sick leaves and lumbar flexibility. These outcome measures were assessed at baseline and at each follow-up. Lumbar flexibility was evaluated using the fingers-to-floor and trunk side bending measures (in cm). The percentage of patients undergoing a 20% relative improvement, the proportion of patients reaching a VAS score of 40 mm or less using 100 mm scale in the primary outcome, and patient acceptable symptom state (PASS) were also assessed. Pain medication use was inquired about during the follow-up visits.

## O=P(O)(O)C(O)(Cn1ccnc1)P(=O)(O)O [ZA, zoledronic acid]
1 mo.
  Fingers-to-floor, mean (SD) original value: 17 (17) cm
  Oswestry disability index, mean (SD) original value: 24 (10) %
  RAND-36 mental component, mean (SD) original value: 50 (9)
  RAND-36 physical component, mean (SD) original value: 52 (9)
  Sidebending to left, mean (SD) original value: 16.1 (5.3) cm
  Sidebending to right, mean (SD) original value: 15.7 (5.9) cm
  Total RAND-36, mean (SD) original value: 51 (8)
  Intensity of leg pain, mean (SD) original value: 2.0 (2.3)
  Fingers-to-floor, between-group difference, adjusted (ANCOVA): 3.6 cm
  Fingers-to-floor, between-group difference, unadjusted: 5.0 cm
  Intensity of LBP, between-group difference, adjusted analysis (ANCOVA, baseline value): 1.4
  Intensity of LBP, between-group difference, unadjusted analysis: 1.3
  Intensity of leg pain, between-group difference, adjusted (ANCOVA): 0.8
  Intensity of leg pain, between-group difference, unadjusted: 0.8
  Oswestry disability index, between-group difference, adjusted (ANCOVA): 6.0%
  Oswestry disability index, between-group difference, unadjusted: 4.3%
  RAND-36 mental component, between-group difference (95% CI), adjusted (ANCOVA): 1.6 (−2 to 5)
  RAND-36 mental component, between-group difference (95% CI), unadjusted: 2.0 (−2 to 6)
  RAND-36 physical component, between-group difference (95% CI), adjusted (ANCOVA): 1.3 (−3 to 6)
  RAND-36 physical component, between-group difference (95% CI), unadjusted: 0.3 (−4 to 5)
  Sidebending to left, between-group difference, adjusted (ANCOVA): −1.7 cm
  Sidebending to left, between-group difference, unadjusted: −1.5 cm
  Sidebending to right, between-group difference, adjusted (ANCOVA): −2.0 cm
  Sidebending to right, between-group difference, unadjusted: −2.0 cm
  Total RAND-36, between-group difference (95% CI), adjusted (ANCOVA): 1.3 (−3 to 5)
  Total RAND-36, between-group difference (95% CI), unadjusted: 1.2 (−3 to 5)
1 mo. after 5 mg IV
  Intensity of LBP, mean (SD) original value: 4.3 (2.3)
12 mos.
  Intensity of leg pain, mean (SD) original value: 2.1 (2.8)
  Fingers-to-floor, mean (SD) original value: 16 (16) cm
  Oswestry disability index, mean (SD) original value: 25 (13) %
  RAND-36 mental component, mean (SD) original value: 51 (9)
  RAND-36 physical component, mean (SD) original value: 52 (8)
  Sidebending to left, mean (SD) original value: 16.2 (6.7) cm
  Sidebending to right, mean (SD) original value: 15.7 (5.6) cm
  Total RAND-36, mean (SD) original value: 51 (8)
  Fingers-to-floor, between-group difference, adjusted (ANCOVA): 5.3 cm
  Fingers-to-floor, between-group difference, unadjusted: 7.1 cm
  Intensity of LBP, between-group difference, adjusted analysis (ANCOVA, baseline value): 0.7
  Intensity of LBP, between-group difference, unadjusted analysis: 0.6
  Intensity of leg pain, between-group difference, adjusted (ANCOVA): 0.5
  Intensity of leg pain, between-group difference, unadjusted: 0.6
  Oswestry disability index, between-group difference, adjusted (ANCOVA): 5.1%
  Oswestry disability index, between-group difference, unadjusted: 3.1%
  RAND-36 mental component, between-group difference (95% CI), adjusted (ANCOVA): 2.7 (−2 to 7)
  RAND-36 mental component, between-group difference (95% CI), unadjusted: 3.5 (−2 to 9)
  RAND-36 physical component, between-group difference (95% CI), adjusted (ANCOVA): 2.1 (−3 to 7)
  RAND-36 physical component, between-group difference (95% CI), unadjusted: 0.7 (−5 to 6)
  Sidebending to left, between-group difference, adjusted (ANCOVA): −1.0 cm
  Sidebending to left, between-group difference, unadjusted: −0.7 cm
  Sidebending to right, between-group difference, adjusted (ANCOVA): −1.7 cm
  Sidebending to right, between-group difference, unadjusted: −1.6 cm
  Total RAND-36, between-group difference (95% CI), adjusted (ANCOVA): 2.2 (−2 to 7)
  Total RAND-36, between-group difference (95% CI), unadjusted: 2.1 (−3 to 7)
12 mos. after 5 mg IV
  Intensity of LBP, mean (SD) original value: 3.8 (2.5)
baseline
  Intensity of leg pain, mean (SD) original value: 3.0 (3.1)
  Fingers-to-floor, mean (SD) original value: 23 (19) cm
  Oswestry disability index, mean (SD) original value: 30 (11) %
  RAND-36 mental component, mean (SD) original value: 49 (9)
  RAND-36 physical component, mean (SD) original value: 52 (8)
  Sidebending to left, mean (SD) original value: 15.0 (5.4) cm
  Sidebending to right, mean (SD) original value: 14.1 (4.9) cm
  Total RAND-36, mean (SD) original value: 50 (8)
Baseline to 1 mo.
  Intensity of LBP, mean (SD) change: −2.2 (2.7)
  Fingers-to-floor, mean (SD) change: −5.1 (20) cm
  Intensity of leg pain, mean (SD) change: −0.6 (2.4)
  Oswestry disability index, mean (SD) change: −5.9 (11) %
  RAND-36 mental component, mean change: 1.0
  RAND-36 physical component, mean change: 0.1
  Sidebending to left, mean (SD) change: 1.1 (3.0) cm
  Sidebending to right, mean (SD) change: 1.5 (4.7) cm
  Total RAND-36, mean change: 0.6
Baseline to 12 mos.
  Intensity of LBP, mean (SD) change: −2.8 (2.9)
  Fingers-to-floor, mean (SD) change: −6.3 (23) cm
  Intensity of leg pain, mean (SD) change: −0.9 (3.4)
  Oswestry disability index, mean (SD) change: −5.0 (15) %
  RAND-36 mental component, mean change: 1.8
  RAND-36 physical component, mean change: 0.3
  Sidebending to left, mean (SD) change: 1.2 (5.3) cm
  Sidebending to right, mean (SD) change: 1.6 (4.8) cm
  Total RAND-36, mean change: 1.0
baseline, n=20
  Intensity of LBP, mean (SD) original value: 6.6 (1.4)
At one year, placebo 60%
  Patients using NSAIDs (self-reported): 20%
One month, placebo 20% (p=0.096)
  Proportion of patients reaching patient acceptable symptom state (PASS): 50%
One month, placebo 25% (p=0.105)
  Proportion of patients with at least 20% improvement in intensity of LBP: 55%
Patients with Baseline VAS <6
  Pain reduction, VAS change from baseline: −0.1 cm
Patients with Baseline VAS ≥6 and <7
  Pain reduction, VAS change from baseline: −2.3 cm
Patients with Baseline VAS ≥7
  Pain reduction, VAS change from baseline: −3.4 cm
Patients with baseline pain intensity <6
  Mean reduction in pain from baseline: 0.1
Patients with baseline pain intensity ≥7
  Mean reduction in pain from baseline: 3.4
